Source: US20240033264A1, “CDK INHIBITORS” (QILU REGOR THERAPEUTICS INC., priority 2020, published 2024)

How the values were obtained:
CDK4/CyclinD1 = CDK4/CyclinD1 (Homo sapiens (Human), UniProt P11802); experiment: Assay for inhibition of CDK4/CyclinD1 (Caliper microfluidic kinase assay); assay type: biochemical; settings: summary statement
Procedure: (§1) The CDK4 enzyme assay for IC50 determination was performed as follows. Microfluidic kinase detection technology (Caliper) was used to monitor the phosphorylation of peptide substrate by CDK4/CyclinD1. The total reaction volume was 15 μL containing buffer A (100 mM HEPES (pH 7.5), 0.1% BSA, 0.01% Triton X-100, 1 mM DTT, 10 mM MgCl2, 10 μM Sodium Orthovanadate, 10 μM Beta-Glycerophosphate), 200 μM ATP, 1 nM CDK4/CyclinD1 (Thermofisher, PR8064A), 1 μM FL-34 (5-FAM-[…]), and the test compound at appropriate dilutions in DMSO. All components were added to the 384-well plate (Corning, 4514), and incubated at Room Temperature for 3 hours. The reaction was terminated by addition of 15 μL Stop Buffer (180 mM HEPES (pH 7.5), 20 mM EDTA, Coating-3 reagent (PerkinElmer, 760050)). The plate was then loaded on Caliper EZ Reader (EZ Reader II, PerkinElmer, HD-4HYSG2772), and the reaction mixtures including substrate and product were sipped into the microfluidic chip for separation and detection. The IC50 values of the test compound were determined by fitting the inhibition curves by 4 parameter sigmoidal dose-response model using the Xlfit5/GraphPad Prism 5 software.

CDK6/CyclinD3 = CDK6/CyclinD3 (Homo sapiens (Human), UniProt Q00534); experiment: Assay for inhibition of CDK6/CyclinD3 (Caliper microfluidic kinase assay); assay type: biochemical; settings: summary statement
Procedure: as §1, with “The CDK6” for “The CDK4”, “by CDK6/CyclinD3.” for “by CDK4/CyclinD1.”, “volume is” for “volume was”, “Beta-Glycerophosphate), 300” for “Beta-Glycerophosphate), 200”, “ATP, 2” for “ATP, 1”, “nM CDK6/CyclinD3 (Carna, 04-107),” for “nM CDK4/CyclinD1 (Thermofisher, PR8064A),”

CDK2/CyclinE1 = CDK2/CyclinE1 (Homo sapiens (Human), UniProt P24941); experiment: Assay for inhibition of CDK2/CyclinE1 (Caliper microfluidic kinase assay); assay type: biochemical; settings: summary statement
Procedure: The CDK2 enzyme assay for IC50 determination was performed as follows. Microfluidic kinase detection technology (Caliper) was used to monitor the phosphorylation of peptide substrate by CDK2/CyclinE1. The total reaction volume was 15 μL containing buffer A (100 mM HEPES (pH 7.5), 0.1% BSA, 0.01% Triton X-100, 1 mM DTT, 10 mM MgCl2, 10 μM Sodium Orthovanadate, 10 μM Beta-Glycerophosphate), 100 μM ATP, 5 nM CDK2/CyclinE1 (SignalChem, C29-18G), 5 μM FL-18 (5-FAM-QSPKKG-NH2), and the test compound at appropriate dilutions in DMSO. All components were added to the 384-well plate (Corning, 4514), and incubate at Room Temperature for 3 hours. The reaction was terminated by addition of 15 μL Stop Buffer (180 mM HEPES (pH 7.5), 20 mM EDTA, Coating-3 reagent (PerkinElmer, 760050)). The plate was loaded on Caliper EZ Reader (EZ Reader II, PerkinElmer, HD-4HYSG2772), and the reaction mixtures including substrate and product were sipped into the microfluidic chip for separation and detection. The IC50 values of the test compound were determined by fitting the inhibition curves by 4 parameter sigmoidal dose-response model using the Xlfit5/GraphPad Prism 5 software.

T47D breast cancer cells = experiment: Anti-proliferation assay in T47D cell (Cyquant); assay type: cell-based, human; settings: for IC50: Homo sapiens, T47D, 144 h, anti-proliferation, day 6 after compound addition
Description: T47D is a human breast cancer cell line commonly used in biomedical research involving the hormonal expression of cancer cells. T47D cells are distinct from other human breast cancer cells in that their progesterone receptors (PR) are not regulated by estradiol, a hormone that is abundant within the cells themselves. T47D cells have been employed in studies of the effects of progesterone on breast cancer and the corresponding transcriptional regulation caused by introduced drugs. The cells have been noted to be extremely resistant to estrogens and antiestrogens.
T47D breast cancer cells from American Type Culture Collection (ATCC, HTB-133) were plated at 3000 cells/well in 96-well plates, and were incubated in RPMI 1640 medium (Gibco, 31800105) with 10% Fetal Bovine Serum (FBS, Biowest, FB-1058) at 37° C., 5% CO2. After overnight incubation, baseline values were measured of the samples from one plate using Cyquant reagent (Invitrogen, C35011) following manufacturer's recommendations. Cells were incubated with the detection reagent for 1 hour at 37° C., and then the fluorescence was measured with excitation at 485 nm and emission at 535 nm using Spectra Max M5 (Molecular Devices, HD-4HYSG3196). Other plates were dosed with compounds at a ten-point dose concentration from 10 μM to 0.51 nM in a 3-fold dilution scheme. On day 6 after compound addition, Cyquant reagent was added and the fluorescence was measured using Spectra Max M5. The IC50 values of the test compound's anti-proliferation activity were determined from the baseline subtracted viability readout curve using Xlfit5/GraphPad Prism 5 software.

[1] = Brain penetration (stated in summary, no method); settings: summary statement
[2] = tested on: Phosphorylation of Retinoblastoma Protein (pRb) Ser807/811 in T47D cell; experiment: Inhibition of phosphorylation of retinoblastoma protein (pRb) in T47D cell (ELISA); assay type: cell-based; settings: Homo sapiens, 24 hours incubation, read-out: Phospho T47D Ser807 IC50
Procedure: T47D breast cancer cells from American Type Culture Collection (ATCC, HTB-133) were plated at 40,000 cells/well in 96-well plates, and were incubated in RPMI 1640 medium (Gibco, 31800105) with 10% Fetal Bovine Serum (FBS, Biowest, FB-1058). Cells were then allowed to adhere overnight at 37° C., 5% CO2. The following day, compounds were titrated in a 3-fold dilution scheme, and the highest compound concentration tested was […]. After 24 hours incubation with compounds, cells were lysed in ice-cold lysis buffer containing phosphatase inhibitor cocktail and 1 mM PMSF. Cell lysates (50 μL/well) were then transferred to ELISA plates (pRb Ser807/811 ELISA kit, Cell Signaling, 13152 or pRb Ser780 ELISA kit, Cell Signaling, 13016)). Plates were incubated overnight at 4° C., with constant slow speed shaking. After incubation, plates were washed following manufacturer's recommendations, and then 100 μL reconstituted detection antibody was added to each well and incubated for 1 hour at 37° C. After incubation, plates were washed, and then 100 μL reconstituted HRP-linked secondary antibody was added to each well and incubated for 30 mins at 37° C. […] Plates were read on the Envision plate reader (PerkinElmer, 2104-0010) using the 96-well […] mode. IC50 values were calculated using 4 parameter sigmoidal dose-response model of Xlfit5/GraphPad Prism 5 software.

Chain of CDK4/CyclinD1 (P11802 whole entry): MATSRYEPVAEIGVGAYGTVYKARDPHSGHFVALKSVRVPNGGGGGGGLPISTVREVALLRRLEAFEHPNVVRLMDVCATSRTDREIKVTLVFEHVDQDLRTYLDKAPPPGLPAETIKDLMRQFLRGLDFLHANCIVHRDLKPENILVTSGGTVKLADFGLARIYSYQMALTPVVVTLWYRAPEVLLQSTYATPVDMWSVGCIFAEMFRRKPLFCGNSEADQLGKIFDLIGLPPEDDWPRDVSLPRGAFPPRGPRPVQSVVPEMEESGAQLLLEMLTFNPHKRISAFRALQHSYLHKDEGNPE
Chain of CDK4/CyclinD1 (P24385 whole entry partner): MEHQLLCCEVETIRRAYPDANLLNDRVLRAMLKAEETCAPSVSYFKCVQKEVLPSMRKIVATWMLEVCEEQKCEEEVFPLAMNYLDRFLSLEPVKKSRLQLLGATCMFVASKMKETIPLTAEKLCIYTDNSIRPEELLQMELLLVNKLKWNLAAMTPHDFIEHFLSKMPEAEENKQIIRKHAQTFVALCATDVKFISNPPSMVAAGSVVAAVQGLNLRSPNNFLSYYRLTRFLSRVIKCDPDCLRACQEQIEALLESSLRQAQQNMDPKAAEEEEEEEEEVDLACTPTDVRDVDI
Chain of CDK6/CyclinD3 (Q00534 whole entry): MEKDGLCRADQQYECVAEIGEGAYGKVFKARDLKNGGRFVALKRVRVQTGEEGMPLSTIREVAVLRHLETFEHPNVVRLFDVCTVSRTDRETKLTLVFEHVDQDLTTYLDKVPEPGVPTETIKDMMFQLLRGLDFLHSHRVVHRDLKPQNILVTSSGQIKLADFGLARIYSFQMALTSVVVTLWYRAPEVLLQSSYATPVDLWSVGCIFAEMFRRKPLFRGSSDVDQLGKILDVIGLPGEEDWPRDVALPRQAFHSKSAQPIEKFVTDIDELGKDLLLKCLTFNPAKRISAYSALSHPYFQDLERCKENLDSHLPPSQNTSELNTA
Chain of CDK6/CyclinD3 (P30281 whole entry partner): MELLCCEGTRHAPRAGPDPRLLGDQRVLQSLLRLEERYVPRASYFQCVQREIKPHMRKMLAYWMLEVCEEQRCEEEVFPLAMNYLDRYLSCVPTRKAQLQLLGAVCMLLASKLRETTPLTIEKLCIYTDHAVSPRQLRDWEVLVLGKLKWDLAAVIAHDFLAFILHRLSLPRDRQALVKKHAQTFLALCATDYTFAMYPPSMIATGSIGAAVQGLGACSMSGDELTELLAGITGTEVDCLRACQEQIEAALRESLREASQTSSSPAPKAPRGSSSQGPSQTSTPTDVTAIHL

SMILES: CC(C)c1cnn2ccc(-c3ccnc(Nc4ccc(N5CC[C@H](N(C)C)CC5=O)cn4)n3)cc12 [Compound A]
- inhibition of CDK4 (in words) (CDK4/CyclinD1): actively inhibits
- inhibition of CDK6 (in words) (CDK6/CyclinD3): actively inhibits
- inhibition of CDK2 (in words) (CDK2/CyclinE1): actively inhibits
- anti-proliferation activities (in words) (T47D breast cancer cells; summary statement): strong

SMILES: CC(C)N1CCN(c2ccc(Nc3nccc(-c4cc5c(ncn5C(C)C)c(F)n4)n3)nc2)CC1 [Compound B]
- selectivity of CDK4 inhibition (in words) (CDK4/CyclinD1): selectively inhibit
- brain penetration (in words) [1]: excellent

SMILES: CC(C)c1cnn2ccc(-c3ccnc(Nc4ccc(N5CCC(N(C)C)CC5=O)cn4)n3)cc12 (centres unmarked) [Synthetic Example 1]
- IC50 (T47D breast cancer cells): < 0.1 µM

SMILES: CC(C)c1cnn2ccc(-c3ccnc(Nc4ccc(N5CC[C@@H](N(C)C)CC5=O)cn4)n3)cc12 [Synthetic Example 2]
- IC50 (T47D breast cancer cells): < 0.1 µM

SMILES: CC(C)c1cnn2ccc(-c3ccnc(Nc4ccc(N5CC[C@H](N(C)C)CC5=O)cn4)n3)cc12 [Synthetic Example 3]
- IC50 (T47D breast cancer cells): < 0.1 µM
- IC50 [2]: < 0.1 µM

SMILES: CC(C)N1CCN(c2ccc(Nc3nccc(-c4cc5c(ncn5C(C)C)c(F)n4)n3)nc2)CC1 [Synthetic Example 4]
- IC50 (T47D breast cancer cells): < 0.1 µM
